# Reference: PMC6288471 (Frontiers in Veterinary Science, 2018)
# Like-named read-outs stand apart in the source and are kept apart here.
# Assays:
# [1] = Protein binding of apixaban in spiked platelet-poor plasma (ultrafiltration, UPLC-MS); type: in vitro ADME, horse
# Protocol: The supernatant was filtered with a […] syringe filter (Corning Inc.). […] Half of the sample was subsequently frozen at −20°C and the rest was ultracentrifuged at 16,000 × g for 30 min in a molecular exclusion device (Amicon Ultra 30k filter, Millipore), to remove the major plasma proteins. The ultrafiltrate was then frozen at −20°C. Both the spiked plasma and the ultrafiltrate of the spiked plasma were analyzed for apixaban using UPLC-MS.
# [2] = target: T1, bovine activated Factor X (Bos taurus, UniProt P00743); assay: Apixaban-calibrated chromogenic anti-Xa activity assay in platelet-poor plasma of dosed horses; type: in vivo, horse; details: for Anti-Xa activity (ng/mL), median (range): PO 0.2 mg/kg
# T1 construct: purchased Diagnostica Stago STA®-Liquid anti-Xa
# T1 sequence (P00743 234-492 limits assumed): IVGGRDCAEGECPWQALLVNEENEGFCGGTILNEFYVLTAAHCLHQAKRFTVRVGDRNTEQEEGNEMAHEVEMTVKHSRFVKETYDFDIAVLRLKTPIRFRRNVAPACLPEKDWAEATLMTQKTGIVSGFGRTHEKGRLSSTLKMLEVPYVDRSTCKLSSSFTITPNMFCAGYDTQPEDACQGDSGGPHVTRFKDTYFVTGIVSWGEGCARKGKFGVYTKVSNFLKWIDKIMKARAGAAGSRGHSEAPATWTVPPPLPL
# T1 sequence (P00743 41-180 limits assumed): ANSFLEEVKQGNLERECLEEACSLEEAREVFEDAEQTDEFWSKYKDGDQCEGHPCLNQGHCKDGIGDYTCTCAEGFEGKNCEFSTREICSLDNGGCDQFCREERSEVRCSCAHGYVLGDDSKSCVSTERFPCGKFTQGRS
# Protocol: The PPP was harvested from the supernatant of PRP after high-speed centrifugation (13,000 × g, Accuspin Micro, Thermo Scientific, Rockford, IL, USA) for 5 min. The PPP was frozen at −20°C and assays were performed in batches. The PPP was thawed at 37°C in a water bath before analysis with an automated coagulation analyzer (STA® Compact, Diagnostica Stago, Parsipanny, NJ, USA). The assay is configured with a bovine activated Factor X reagent added in excess to the test plasma and a chromogenic substrate of Factor Xa (STA®-Liquid anti-Xa, Diagnostica Stago). In this assay, residual, uninhibited Factor Xa cleaves the chromogenic substrate such that the inverse of the color change in the reaction mixture is proportional to the drug concentration in the test plasma.
# [3] = Clinical pathologic testing: select biochemical tests; type: in vivo, horses; details: for SDH (sorbitol dehydrogenase), median (range): reference interval 0–11; for GLDH (glutamate dehydrogenase), median (range): reference interval 1–8; for UN (urea nitrogen), median (range): reference interval 3.9–10.0; for SAA (serum amyloid A), median (range): reference interval 5–20, 5 mg/L is the lower limit of detection; for GGT (gamma glutamyl transferase), median (range): reference interval 8–29; for GLOB (globulins), median (range): reference interval 24–44; for ALB (albumin), median (range): reference interval 30–37; for CREAT (creatinine), median (range): reference interval 53–141; for TP (total protein), median (range): reference interval 57–77
# Protocol: Automated hemogram results were obtained from the EDTA-anticoagulated blood with a hematology analyzer (ADVIA 2120, Siemens Healthcare Diagnostics Inc., Tarrytown, NJ, USA). To verify the automated platelet counts, modified Wright's-stained blood smears were evaluated for platelet clumps by trained medical technologists. Biochemical analysis for renal analytes (serum urea nitrogen and creatinine concentrations), liver enzymes (sorbitol dehydrogenase, glutamate dehydrogenase, aspartate aminotransferase and gamma glutamyl transferase activities), protein-related analytes (total protein, albumin, and globulin concentrations), and the acute phase protein, serum amyloid A, were performed with an automated chemistry analyzer (Hitachi P modular, Roche Diagnostics, Indianapolis, IN, USA) using manufacturer's reagents, with the exception of sorbitol dehydrogenase (Sigma-Aldrich), glutamate dehydrogenase (Randox Laboratories Ltd, Antrim, UK), and serum amyloid A (LZ test Eiken-SAA, Mast House, Merseyside, UK).
# platelets = details: PRP spiked ex vivo with concentrations similar to 44 to 74 ng/mL, data not shown
# [4] = cats, cited from earlier work
# [5] = humans; cited from earlier work
structure (smiles),measurement,setting,value
COc1ccc(-n2nc(C(N)=O)c3c2C(=O)N(c2ccc(N4CCCCC4=O)cc2)CC3)cc1 [apixaban],"fraction unbound at 30 min, 200 nM","[1]; horse PPP spiked at 92 ng/mL (200 nM), read-out: mean percentage of protein binding (converted)",0.076
same,"fraction unbound at 30 min, 1000 nM","[1]; horse PPP spiked at 460 ng/mL (1,000 nM), read-out: mean percentage of protein binding (converted)",0.015
same,fraction unbound at 30 min,"[1]; horse plasma, range as given in abstract",0.01 to 0.08
same,"Anti-Xa activity (ng/mL), median (range)",[2]; 15 min,7.4 (5.9–9.4) ng/mL
same,"Anti-Xa activity (ng/mL), median (range)",[2]; 30 min,7.5 (6.8–12.5) ng/mL
same,"Anti-Xa activity (ng/mL), median (range)",[2]; 45 min,9.9 (8.4–10.1) ng/mL
same,"Anti-Xa activity (ng/mL), median (range)",[2]; 1 h,10.9 (8.4–17) ng/mL
same,"Anti-Xa activity (ng/mL), median (range)",[2]; 2 h,9.7 (7.4–14.8) ng/mL
same,"Anti-Xa activity (ng/mL), median (range)",[2]; 4 h,9.3 (3.8–12) ng/mL
same,"Anti-Xa activity (ng/mL), median (range)",[2]; 6 h,10.7 (6.3–13.8) ng/mL
same,"Anti-Xa activity (ng/mL), median (range)",[2]; 24 h,7.6 (0–8.3) ng/mL
same,change in anti-Xa activity,[2]; oral dosing of apixaban,No change
same,"SDH (sorbitol dehydrogenase), median (range)","[3]; IV, T0 (before)",4 (3–4) U/L
same,"GLDH (glutamate dehydrogenase), median (range)","[3]; IV, T0 (before)",4 (3–4) U/L
same,"UN (urea nitrogen), median (range)","[3]; IV, T0 (before)",6.8 (6.1–7.8) mmol/L
same,"SAA (serum amyloid A), median (range)","[3]; IV, T0 (before)",5 (5–9) mg/L
same,"GGT (gamma glutamyl transferase), median (range)","[3]; IV, T0 (before)",11 (10–13) U/L
same,"GLOB (globulins), median (range)","[3]; IV, T0 (before)",36 (32–38) g/L
same,"ALB (albumin), median (range)","[3]; IV, T0 (before)",32 (30–34) g/L
same,"CREAT (creatinine), median (range)","[3]; IV, T0 (before)",106 (97–106) μmol/L
same,"TP (total protein), median (range)","[3]; IV, T0 (before)",68 (66–71) g/L
same,"SDH (sorbitol dehydrogenase), median (range)","[3]; IV, T24",3 (2–4) U/L
same,"GLDH (glutamate dehydrogenase), median (range)","[3]; IV, T24",3 (3–5) U/L
same,"UN (urea nitrogen), median (range)","[3]; IV, T24",5.7 (5.4–7.5) mmol/L
same,"SAA (serum amyloid A), median (range)","[3]; IV, T24",8 (5–12) mg/L
same,"GGT (gamma glutamyl transferase), median (range)","[3]; IV, T24",11 (10–13) U/L
same,"GLOB (globulins), median (range)","[3]; IV, T24",37 (32–40) g/L
same,"ALB (albumin), median (range)","[3]; IV, T24",32 (30–35) g/L
same,"CREAT (creatinine), median (range)","[3]; IV, T24",115 (106–115) μmol/L
same,"TP (total protein), median (range)","[3]; IV, T24",68 (67–72) g/L
same,"SDH (sorbitol dehydrogenase), median (range)","[3]; PO, T0 (before)",5 (4–10) U/L
same,"GLDH (glutamate dehydrogenase), median (range)","[3]; PO, T0 (before)",6 (4–10) U/L
same,"UN (urea nitrogen), median (range)","[3]; PO, T0 (before)",6.4 (5.4–7.1) mmol/L
same,"SAA (serum amyloid A), median (range)","[3]; PO, T0 (before)",5 (5–7) mg/L
same,"GGT (gamma glutamyl transferase), median (range)","[3]; PO, T0 (before)",12 (7–13) U/L
same,"GLOB (globulins), median (range)","[3]; PO, T0 (before)",35 (30–38) g/L
same,"ALB (albumin), median (range)","[3]; PO, T0 (before)",32 (29–32) g/L
same,"CREAT (creatinine), median (range)","[3]; PO, T0 (before)",97 (88–106) μmol/L
same,"TP (total protein), median (range)","[3]; PO, T0 (before)",67 (62–70) g/L
same,"SDH (sorbitol dehydrogenase), median (range)","[3]; PO, T24",4 (3–5) U/L
same,"GLDH (glutamate dehydrogenase), median (range)","[3]; PO, T24",4 (4–7) U/L
same,"UN (urea nitrogen), median (range)","[3]; PO, T24",5.7 (4.6–6.4) mmol/L
same,"SAA (serum amyloid A), median (range)","[3]; PO, T24",5 (5–5) mg/L
same,"GGT (gamma glutamyl transferase), median (range)","[3]; PO, T24",12 (9–13) U/L
same,"GLOB (globulins), median (range)","[3]; PO, T24",36 (30–39) g/L
same,"ALB (albumin), median (range)","[3]; PO, T24",32 (29–33) g/L
same,"CREAT (creatinine), median (range)","[3]; PO, T24",106 (97–115) μmol/L
same,"TP (total protein), median (range)","[3]; PO, T24",65 (63–72) g/L
same,changes in chosen biochemical test results,"[3]; horses, 24 h after PO or IV administration",no significant changes
same,inhibition of platelet activation in spiked equine PRP,platelets,did not see any inhibition
same,half-life,[4]; 0.2 mg/kg IV dose,1.1 h
same,Cmax,[4]; IV administration 0.2 mg/kg,460 ng/mL
same,bioavailability,[4]; oral 0.2 mg/kg,85%
same,Cmax,[4]; oral administration 0.2 mg/kg,74 ng/mL
same,availability after oral administration,[5],50%
same,"fecal route of elimination, share of the dose",[5],> 46%
